In patent US20240391928A1, “COMPOSITIONS FOR THE TREATMENT OF FOOD AND CHEMICAL ADDICTION AND METHODS OF MAKING AND USING SAME” (Duke University, priority 2021, published 2024):
Several values for one entry are separate records, joined by “and”; a condition that tells them apart may be missing. Equal entries are not always repeated. Entries after “also recorded” stand apart in the source; their conditions may differ.

Experiments:
GHSR1a^P200A = molecular target: T1, GHSR1a^P200A (Homo sapiens, UniProt Q92847, P200A); assay: Gαq dissociation and iCa2+ at P200A mutant; format: cell-based
T1 construct: expressed in transfected cells; host or cells: HEK293/T
Description: (§1) For experiments with WT and Gt KO HEK293/S cells, […] of hGHSR1a^WT, 10 μg of miAEQ, and 2.5 μg of pcDNA3.1 was transiently transfected into 10 cm dishes and incubated overnight. […] Twenty-four hours later, experiments proceeded in accordance with the procedures described above. To control for any possible kinetic differences in genetically modified cell lines or GHSR1a variants, the average ligand-induced response over 10 seconds was calculated, then normalized by dividing the L-miAeq by the L-miAeq plus the Lysis-miAeq and normalized to the appropriate control/reference condition.

hGHSR1a^WT-RLucII = molecular target: T2, hGHSR1a^WT-RLucII (Homo sapiens, UniProt Q92847); assay: Bystander BRET endosomal trafficking (2xFYVE-Venus); format: cell-based; conditions: 60-minute post-treatment
T2 construct: expressed in transfected cells; host or cells: HEK293/T, transient
Description: Bystander BRET (bBRET). hGHSR1a^WT-RLucII and plasma membrane marker, MyrPalm^mVenus, or the early endosomal marker, 2×-FYVE^mVenus, was transiently co-transfected in HEK293/T cells at a ratio of 1:5 or 1:12.5, respectively. […] Plates were then read by a Mithras 940 plate reader every 5 minutes over 1 hour (MyrPalm^mVenus) or 2 hours (2×FYVE^mVenus) to determine a BRET ratios. To generate CR curves, the average net BRET over 60 minutes post-treatment was used.

GHSR1a^R199A = molecular target: T3, GHSR1a^R199A (Homo sapiens, UniProt Q92847, R199A); assay: Gαq dissociation and iCa2+ at R199A mutant; format: cell-based
T3 construct: expressed in transfected cells; host or cells: HEK293/T
Description: as §1

human GHSR1a^WT (Gαq) = human GHSR1a^WT (Gαq) (Homo sapiens, UniProt Q92847); assay: TRUPATH (BRET) Gαq dissociation
Description: (§2) BRET-based Gαq Dissociation & β-arr2 Recruitment Assays. TRUPATH Gα dissociation: Gαq/i1/i2/OA/12/13/sS^RLuc8 and Gγ8^GFP2 or Gγ9^GFP2 were transiently co-transfected with human 3×HA-GHSR1a^WT and untagged Gβ3 at a 1:1:1:1 ratio (100 μg each) into monolayers of HEK293/T cells along with 1.6 μg pcDNA3.1. The next morning, media (DMEM supplemented with 10% FBS and antibiotic/antimycotic) was exchanged and after 4-6 hours, cells were plated on white 96-well, clear-bottomed assay plates at a density of 40,000-50,000 cells/well in opti-MEM supplemented with 2% FBS and antibiotic/antimycotic. The next morning, opti-MEM was removed and cells were incubated with 80 μL HBSS supplemented with 20 mM HEPES (pH 7.4) for 4 hours. Cells were then treated with 10 μL of the luminescent substrate, coelenterazine 400a (5 μM final), for 5 minutes at room temperature prior to the addition of 10 μL of test compound. Five minutes after ligand application, luminescence was measured by a Mithras 940 plate reader over 30 minutes and the maximal response was utilized for generating all C/R curves.

[1] = molecular target: T4, hGHSR1a^WT-RLucII / mVenus-β-arr2 (Homo sapiens, UniProt Q92847); assay: BRET β-arr2 recruitment; format: cell-based
T4 construct: expressed in transfected cells; host or cells: HEK293/T, transient
Description: The morning after transfection, media was exchanged and after 4-6 hours, cells were then plated on white 96-well, clear-bottomed assay plates at a density of 45,000 cells/well in opti-MEM supplemented with 2% FBS and antibiotic/antimycotic. The following morning, opti-MEM was removed and cells were incubated with 70-80 μL HBSS supplemented with 20 mM HEPES (pH 7.4) for 4 hours. Cells were then treated with 10 μL of coelenterazine H (5 μM final) for 5-10 minutes at room temperature.

GHSR1a [2] = molecular target: T5, GHSR1a (Homo sapiens, UniProt Q92847); assay: PRESTO-Tango GPCRome β-arr2 recruitment screen; format: cell-based; set-up: expressed in transfected cells; conditions: N8279 1 μM
Description: Hits were defined as >3-fold activation above baseline. […] The assay quality was assessed by plotting duplicate, independent trial averages (derived from 4 independent wells) for each receptor as a point (X,Y). The corresponding plot of points for an ideal assay were fit by a regression line with the slope=1.

DAT knockout (KO) mice = assay: Spontaneous hyperlocomotion in DAT KO mice (open field); format: in vivo, mouse; conditions: 2.5, 5, or 10 mg/kg, IP; 120 minutes
Description: To evaluate the effect of N8279 on DAergic-modulated behavior in vivo, DAT knockout (KO) mice, which have constitutively elevated extracellular DA levels and consequently, spontaneous hyperactivity in a novel, open-field were used. After a 30 minute acclimation period, male and female DAT KO mice were administered vehicle or pharmacologically-relevant, brain penetrant doses of N8279 (FIG. 4A; 2.5, 5, or 10 mg/kg, IP), then were returned to the open-field and locomotion measured for 120 minutes.
Novelty-induced locomotor activity in DAT KO and inbred C57BL/6J mice. Open-field locomotor activity in mice was performed similar to that described in Barak et al., ACS Chem Biol. (2016)11(7):1880-90, the disclosure of which is incorporated herein in its entirety. In brief, Age- and sex-matched, littermate DAT KO and inbred C57BL/6J mice between 2-6 months of age were used to measure locomotor activity in an Omnitech Digiscan activity monitor (20×20 cm2; Accuscan Instruments, Columbus, OH). Locomotor activity was measured at 5 minutes intervals. To evaluate the effects of compounds on locomotor behavior, the mice were placed in an activity monitor for a 20-minute habituation period, and afterwards injected with drug or vehicle, returned to the monitor, and locomotor activity was recorded over a period of 90 minutes.

GHSR1a [3] = molecular target: T5, GHSR1a; assay: Bias factor, intrinsic relative activities (RAi) model, Gαq vs β-arr2; set-up: expressed in transfected cells; host or cells: HEK293/T and HEK293/N (the source assays)
Source text: To quantitatively assess N8279 bias between the Gαq and β-arr2 (FIG. 2A) pathways, the intrinsic relative activities (RAi) model was used. […] Ultimately, these analyses together supported that N8279 was a G protein-biased agonist of both proximal and downstream GHSR1a-Gαq signaling.

GHSR1a^N305A = molecular target: T6, GHSR1a^N305A (Homo sapiens, UniProt Q92847, N305A); assay: TRUPATH Gαq dissociation at N305A mutant; format: cell-based
T6 construct: expressed in transfected cells; host or cells: HEK293/T

mGHSR A199P = molecular target: T7, mGHSR A199P (Mus musculus, UniProt Q99P50, A199P); assay: Gαq dissociation and β-arr2 recruitment at humanized mouse receptor; format: cell-based
T7 construct: expressed in transfected cells
Description: To assess if N8279 signaling required receptor sites within and/or conformational states are conserved from the mouse receptor to the human receptor, the amino acid sequences for variations within the ECL2 were first determined (FIG. 17A). Mutations were made to human GHSR1a receptor (hGHSR) for W193R and P200A and to mouse GHSR1a receptor (mGHSR) for […]. N8279-stimulated Gαq dissociation (FIG. 17B) and β-arr2 recruitment (FIG. 17C) were evaluated for each hGHSR and mGHSR mutants in comparison to endogenous (WT) receptors.

hGHSR1a^A204E = hGHSR1a^A204E (Homo sapiens, UniProt Q92847, A204E); assay: cell-based; conditions: read-out: Gαq dissociation maximal efficacy decrease at GHSR1a^A204E
Description: as §2

[4] = molecular target: T8, hGHSR1a^WT-LgBiT / SmBiT-β-arr2 (Homo sapiens, UniProt Q92847); assay: NanoBiT β-arr2 recruitment; format: cell-based
T8 construct: expressed in transfected cells; host or cells: HEK293/T, transient
Description: β-arr2 recruitment: In agonist and antagonist assays of NanoBiT-based β-arr2 recruitment, hGHSR1a^WT-Lg^BiT and ^SmBiT-β^WT were transiently co-transfected at a 1:1 ratio (250 μg each) into monolayers of HEK293/T cells on 6-well plates along with 2 μg of pcDNA3.1. For assays employing the Ala204Glu variant, hGHSR1a^A204E-Lg^BiT was transfected at 2×hGHSR1a^WT-Lg^BiT, as performed for iCa^2+ assays with hGHSR1a^A204E described above. For GHSR1a-β-arr2 saturation assays, a fixed amount of hGHSR1a^WT-Lg^BiT cDNA (250 μg) was transfected with 0, 62.5 (1:0.25), 125 (1:0.5), 250 (1:1), 500 (1:2), or 1000 (1:4) μg of ^SmBiTβ-arr^WT. The morning after transfection, media was exchanged and after 4-6 hours, cells were then plated on white 96-well, clear-bottomed assay plates at a density of 45,000 cells/well in opti-MEM supplemented with 2% FBS and antibiotic/antimycotic. The following morning, opti-MEM was removed and cells were incubated with 70-80 μL HBSS supplemented with 20 mM HEPES (pH 7.4) for 4 hours. Cells were then treated with 10 μL of coelenterazine H (5 μM final) for 15-20 minutes at room temperature. Cells were then stimulated with 10 μL of test compounds and 2 minutes later, luminescence was measured over 5 minutes, which encompassed the peak β-arr2 recruitment signal.

[5] = 5 minute pretreatment, ghrelin 40 nM

T8 sequence (Q92847 whole entry): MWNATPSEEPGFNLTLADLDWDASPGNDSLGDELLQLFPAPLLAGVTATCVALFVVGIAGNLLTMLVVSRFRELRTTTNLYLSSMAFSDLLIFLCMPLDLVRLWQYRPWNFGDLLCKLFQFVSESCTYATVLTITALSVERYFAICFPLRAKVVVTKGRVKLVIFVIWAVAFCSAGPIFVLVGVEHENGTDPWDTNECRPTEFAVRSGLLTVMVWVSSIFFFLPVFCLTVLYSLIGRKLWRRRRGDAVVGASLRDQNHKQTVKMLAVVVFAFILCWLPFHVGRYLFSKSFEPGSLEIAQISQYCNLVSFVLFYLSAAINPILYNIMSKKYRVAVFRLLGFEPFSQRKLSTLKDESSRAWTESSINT
T8 sequence (P32121 whole entry partner): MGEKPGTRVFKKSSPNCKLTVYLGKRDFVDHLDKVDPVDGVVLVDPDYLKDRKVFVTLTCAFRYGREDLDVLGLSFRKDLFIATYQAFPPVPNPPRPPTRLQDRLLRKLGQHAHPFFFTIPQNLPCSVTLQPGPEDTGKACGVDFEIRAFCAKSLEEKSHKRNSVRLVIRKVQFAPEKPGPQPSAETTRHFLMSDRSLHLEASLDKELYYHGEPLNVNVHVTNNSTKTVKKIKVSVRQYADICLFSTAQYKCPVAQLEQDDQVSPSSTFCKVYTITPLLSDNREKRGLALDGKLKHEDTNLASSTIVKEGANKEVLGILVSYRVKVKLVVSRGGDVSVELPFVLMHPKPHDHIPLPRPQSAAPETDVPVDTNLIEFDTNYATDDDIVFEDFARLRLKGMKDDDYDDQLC
Chain of human GHSR1a^WT (Gαq) (Q92847 whole entry): as the sequence (Q92847 whole entry) above
T5 sequence (Q92847 whole entry): as above
T2 sequence (Q92847 whole entry): as above
T3 sequence (Q92847 whole entry R199A): as the sequence (Q92847 whole entry) above, with R199A counted along it
T7 sequence (Q99P50 whole entry A199P): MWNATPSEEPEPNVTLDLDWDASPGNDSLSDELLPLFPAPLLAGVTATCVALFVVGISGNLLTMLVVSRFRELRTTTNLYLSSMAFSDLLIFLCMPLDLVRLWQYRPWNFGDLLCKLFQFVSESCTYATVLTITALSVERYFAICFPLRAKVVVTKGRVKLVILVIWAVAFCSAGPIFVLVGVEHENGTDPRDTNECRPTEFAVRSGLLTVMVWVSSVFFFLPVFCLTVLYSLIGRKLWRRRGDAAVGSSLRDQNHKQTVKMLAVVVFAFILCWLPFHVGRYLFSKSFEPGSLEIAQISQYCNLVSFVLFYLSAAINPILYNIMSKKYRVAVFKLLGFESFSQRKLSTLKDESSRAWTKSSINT
Chain of hGHSR1a^A204E (Q92847 whole entry A204E): as the sequence (Q92847 whole entry) above, with A204E counted along it
T4 sequence (Q92847 whole entry): as the sequence (Q92847 whole entry) above
T4 sequence (P32121 whole entry partner): as the sequence (P32121 whole entry partner) above
T6 sequence (Q92847 whole entry N305A): as the sequence (Q92847 whole entry) above, with N305A counted along it
T1 sequence (Q92847 whole entry P200A): as the sequence (Q92847 whole entry) above, with P200A counted along it

COc1ccc(C(=O)c2c(C(=O)NCCCN(C)C)oc3ccc(Cl)cc3c2=O)cc1OC [Example N8279, 6-Chloro-3-(3,4-dimethoxybenzoyl)-N-(3-(dimethylamino)propyl)-4-oxo-4H-chromene-2-carboxamide]
potency and Emax at GHSR1a^P200A in words (GHSR1a^P200A): reduced dramatically | endosomal transit, fold less potent than ghrelin (bBRET 2xFYVE) (hGHSR1a^WT-RLucII): 32 fold | endosomal transit, less efficacious than ghrelin (bBRET 2xFYVE) (hGHSR1a^WT-RLucII): ~35% | potency at GHSR1a^R199A in words (GHSR1a^R199A): did not affect | BRET-Gαq potency, fold less potent than L585 (human GHSR1a^WT (Gαq)): 1.7 fold | BRET-Gαq potency, fold less potent than ghrelin (human GHSR1a^WT (Gαq)): 6.1 fold | Gαq activation efficacy in words (human GHSR1a^WT (Gαq); NanoBiT and BRET (TRUPATH) assays): full agonist | BRET β-arr2 recruitment, fold less potent than ghrelin [1]: ~100 fold | activation above baseline at GHSR1a (GHSR1a [2]): 6 fold | hyperlocomotion in DAT KO mice in words (DAT knockout (KO) mice): reduced locomotion; also recorded: reduced overall hyperlocomotion | downstream bias (GHSR1a [3]; reference L585): ~14 fold | downstream bias factor (β) (GHSR1a [3]; reference L585): 1.15 | proximal bias (GHSR1a [3]; reference L585): ~28 fold | proximal bias factor (β) (GHSR1a [3]; reference L585): 1.45 | assay-standardized proximal bias factor (β), BRET-Gαq/BRET-β-arr2 (GHSR1a [3]; reference ghrelin): 1.16±0.11 and 1.16 | assay-standardized proximal bias factor (β), NanoBiT-Gαq/NanoBiT-β-arr2 (GHSR1a [3]; reference ghrelin): 1.36±0.33 and 1.36 | assay-standardized proximal bias, BRET-Gαq/BRET-β-arr2 (GHSR1a [3]; reference ghrelin): ~14 fold | assay-standardized proximal bias, NanoBiT-Gαq/NanoBiT-β-arr2 (GHSR1a [3]; reference ghrelin): ~23 fold | downstream bias factor (β), iCa2+ vs NanoBiT β-arr2 (GHSR1a [3]; reference ghrelin): 2.63 | downstream bias, iCa2+ vs NanoBiT β-arr2 (GHSR1a [3]; reference ghrelin): ~427 fold | proximal bias factor (β), Gαq dissociation vs NanoBiT β-arr2 (GHSR1a [3]; reference ghrelin): 0.59 | proximal bias, Gαq dissociation vs NanoBiT β-arr2 (GHSR1a [3]; reference ghrelin): ~4 fold | Gαq dissociation at GHSR1a^N305A in words (GHSR1a^N305A): reduced dramatically | signaling at humanized mGHSR in words (mGHSR A199P): rescues | Emax (hGHSR1a^A204E): ~45% | NanoBiT β-arr2 recruitment, fold less potent than L585 [4]: ~43 fold | NanoBiT β-arr2 recruitment, fold less potent than ghrelin [4]: ~20 fold | inhibition of EC80 ghrelin-induced β-arr2 recruitment in words [4, 5]: significantly, but incompletely | inhibition of EC80 ghrelin-induced β-arr2 recruitment, fold less potent than JMV2959 [4, 5]: 1.7 fold | inhibition of EC80 ghrelin-induced β-arr2 recruitment, fold less potent than YIL781 [4, 5]: 2.9 fold | relative affinity (BiTd) of β-arr2 for GHSR1a, fold weaker than in ghrelin-treated cells ([4]; saturation, N8279 100-200 nM vs ghrelin 100 nM): 22.5 fold
